pIC50: −log10 of the molar value. Counter-ions that a name gives are not always drawn.

Broadly, the pIC50 is −log10 of the IC50, conventionally taken in molar units. Read a low pIC50 as a large IC50.

The target of this test is T1, proton pump (H+/K+-ATPase) (Sus scrofa, UniProt P19156).
T1 construct: Gastric vesicles were prepared from hog stomach via centrifugal separation; from tissue; host or cells: hog stomach (gastric vesicles, method of Rabon et al. 1988)
T1 sequence (P19156 whole entry): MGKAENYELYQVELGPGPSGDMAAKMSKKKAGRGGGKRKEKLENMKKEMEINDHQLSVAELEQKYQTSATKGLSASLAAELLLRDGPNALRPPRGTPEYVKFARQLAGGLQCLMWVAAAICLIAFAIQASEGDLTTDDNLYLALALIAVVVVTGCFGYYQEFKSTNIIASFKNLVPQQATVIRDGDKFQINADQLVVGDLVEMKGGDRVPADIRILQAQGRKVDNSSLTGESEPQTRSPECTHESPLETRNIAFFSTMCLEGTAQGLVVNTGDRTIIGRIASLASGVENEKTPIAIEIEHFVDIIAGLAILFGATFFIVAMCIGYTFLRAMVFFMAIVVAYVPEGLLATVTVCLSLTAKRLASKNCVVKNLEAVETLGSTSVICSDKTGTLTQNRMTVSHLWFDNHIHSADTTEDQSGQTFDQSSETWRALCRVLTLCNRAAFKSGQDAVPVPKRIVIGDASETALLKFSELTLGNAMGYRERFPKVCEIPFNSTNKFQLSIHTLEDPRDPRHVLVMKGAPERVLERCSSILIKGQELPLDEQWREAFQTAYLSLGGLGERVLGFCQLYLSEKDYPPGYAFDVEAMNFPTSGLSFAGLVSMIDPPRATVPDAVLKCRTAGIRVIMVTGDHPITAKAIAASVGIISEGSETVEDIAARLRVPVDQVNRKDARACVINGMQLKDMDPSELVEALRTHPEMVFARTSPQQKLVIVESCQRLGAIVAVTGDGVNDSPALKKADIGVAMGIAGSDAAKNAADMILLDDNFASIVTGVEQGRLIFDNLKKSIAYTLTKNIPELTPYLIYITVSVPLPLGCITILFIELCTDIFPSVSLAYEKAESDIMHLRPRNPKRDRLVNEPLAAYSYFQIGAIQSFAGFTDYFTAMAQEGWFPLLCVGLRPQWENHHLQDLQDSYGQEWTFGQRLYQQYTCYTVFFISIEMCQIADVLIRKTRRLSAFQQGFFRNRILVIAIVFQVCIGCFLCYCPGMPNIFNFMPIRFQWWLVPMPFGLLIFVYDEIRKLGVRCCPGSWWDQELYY
T1 sequence (P18434 whole entry partner): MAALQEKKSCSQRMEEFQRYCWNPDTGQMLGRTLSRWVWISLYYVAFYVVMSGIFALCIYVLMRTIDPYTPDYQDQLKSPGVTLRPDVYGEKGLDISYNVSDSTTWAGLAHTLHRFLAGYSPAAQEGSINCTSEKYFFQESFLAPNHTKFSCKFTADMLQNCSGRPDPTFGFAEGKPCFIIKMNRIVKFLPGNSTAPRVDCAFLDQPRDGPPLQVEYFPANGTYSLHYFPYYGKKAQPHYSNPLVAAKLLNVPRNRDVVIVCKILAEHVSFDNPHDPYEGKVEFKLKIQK
The test is described as follows: Measurement of inhibitory effects on proton pump (H+/K+-ATPase) activities. The test is classed as biochemical. The following applies: hog gastric vesicles, K+-specific H+/K+-ATPase activity, Tris-HCl buffer pH 7.4, 37° C. for 40 minutes, malachite green Pi readout. In short, it runs like this:
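Hog gastric vesicles in 60 mmol/l Tris-HCl pH 7.4 with 0.5% DMSO were treated with compounds at room temperature; reaction was started with 10 μl of 10 mmol/l ATP stock. Released Pi was read at 570 nm, K+-specific activity taken as the ±K+ difference. IC50 from 4-parameter logistic fit.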
For the molecule `Cc1ccc(Nc2ccc3c(C(=O)N(C)C)cn(S(=O)(=O)c4cccnc4)c3c2)c(Cl)c1` [Example 323, 6-((2-chloro-4-methylphenyl)amino)-N,N-dimethyl-1-(pyridin-3-ylsulfonyl)-1H-indol-3-carboxamide], the negative logarithm of the IC50 (pIC50) is 4.70.

In turn, `COc1ccc(Nc2ccc3c(C(=O)N(C)C)cn(S(=O)(=O)c4cccnc4)c3c2)c(F)c1` [Example 324, 6-((2-fluoro-4-methoxyphenyl)amino)-N,N-dimethyl-1-(pyridin-3-ylsulfonyl)-1H-indol-3-carboxamide] showed a pIC50 of 4.70. `CN(C)C(=O)c1cn(S(=O)(=O)c2cccnc2)c2cc(Nc3ccc(C(F)(F)F)cc3Cl)ccc12` [Example 325, 6-((2-chloro-4-(trifluoromethyl)phenyl)amino)-N,N-dimethyl-1-(pyridin-3-ylsulfonyl)-1H-indol-3-carboxamide] gave a pIC50 of 4.17. Compared with the last molecule, the pIC50 is 0.53 log units lower. `Cc1cc(OC(F)(F)F)ccc1Nc1ccc2c(C(=O)N(C)C)cn(S(=O)(=O)c3cccnc3)c2c1` [Example 326, N,N-dimethyl-6-((2-methyl-4-(trifluoromethoxy)phenyl)amino)-1-(pyridin-3-ylsulfonyl)-1H-indol-3-carboxamide]: the pIC50 was 4.43. `CN(C)C(=O)c1cn(S(=O)(=O)c2cccnc2)c2cc(Nc3ccc(OC(F)(F)F)cc3Cl)ccc12` [Example 327, 6-((2-chloro-4-(trifluoromethoxy)phenyl)amino)-N,N-dimethyl-1-(pyridin-3-ylsulfonyl)-1H-indol-3-carboxamide] gave a pIC50 of 4.40. Take `COc1cc(OC(F)(F)F)ccc1Nc1ccc2c(C(=O)N(C)C)cn(S(=O)(=O)c3cccnc3)c2c1` [Example 328, 6-((2-methoxy-4-(trifluoromethoxy)phenyl)amino)-N,N-dimethyl-1-(pyridin-3-ylsulfonyl)-1H-indol-3-carboxamide]: the pIC50 was 5.30. The molecule `Cc1ccc(Nc2ccc3c(C(=O)N(C)C)cn(S(=O)(=O)c4cccnc4)c3c2)c(F)c1F` [Example 329, 6-((2,3-difluoro-4-methylphenyl)amino)-N,N-dimethyl-1-(pyridin-3-ylsulfonyl)-1H-indol-3-carboxamide] gave a pIC50 of 4.38.

Consider `Cc1ccc(Nc2ccc3c(C(=O)N(C)C)cn(S(=O)(=O)c4cccnc4)c3c2)c(Cl)n1` [Example 330, 6-((2-chloro-6-methylpyridin-3-yl)amino)-N,N-dimethyl-1-(pyridin-3-ylsulfonyl)-1H-indol-3-carboxamide], for which the pIC50 is 4.66.

`CN(C)C(=O)c1cn(S(=O)(=O)c2cccnc2)c2cc(Nc3ccc(Cl)nc3Cl)ccc12` [Example 331, 6-((2,6-dichloropyridin-3-yl)amino)-N,N-dimethyl-1-(pyridin-3-ylsulfonyl)-1H-indol-3-carboxamide] had a pIC50 of 4.15. Turning to `COc1ccc(Nc2ccc3c(C(=O)N(C)C)cn(S(=O)(=O)c4cccnc4)c3c2)c(Cl)n1` [Example 332, 6-((2-chloro-6-methoxypyridin-3-yl)amino)-N,N-dimethyl-1-(pyridin-3-ylsulfonyl)-1H-indol-3-carboxamide], the pIC50 was 4.22. With `CNc1cn(S(=O)(=O)c2cccnc2)c2cc(Nc3ccc(C)cc3F)ccc12` [Example 333, N6-(2-fluoro-4-methylphenyl)-N3-methyl-1-(pyridin-3ylsulfonyl)-1H-indol-3,6-diamine hydrochloride], the pIC50 is 5.23. Compared with the last molecule, the pIC50 is 1.01 log units higher.

`COC(=O)c1cn(S(=O)(=O)c2cccnc2)c2cc(-c3ccc(OC)cc3)ccc12` [Example 335, methyl 6-(4-methoxyphenyl)-1-(pyridin-3-ylsulfonyl)-1H-indol-3-carboxylate] gave a pIC50 of 5.87. For `COC(=O)c1cn(S(=O)(=O)c2cccnc2)c2cc(-c3ccc(F)nc3)ccc12` [Example 336, methyl 6-(6-fluoropyridin-3-yl)-1-(pyridin-3-ylsulfonyl)-1H-indol-3-carboxylate] the value was 5.57; for `COC(=O)c1cn(S(=O)(=O)c2ccc(Cl)nc2)c2cc(-c3ccc(F)nc3)ccc12` [Example 337, methyl 1-((6-chloropyridin-3-yl)sulfonyl)-6-(6-fluoropyridin-3-yl)-1H-indol-3-carboxylate], 5.50; for `COC(=O)c1cn(S(=O)(=O)c2cccnc2)c2cc(-c3ccc(OC)nc3)ccc12` [Example 338, methyl 6-(6-methoxypyridin-3-yl)-1-(pyridin-3-ylsulfonyl)-1H-indol-3-carboxylate], 5.46. The value for `CNCc1cn(S(=O)(=O)c2cccc(F)c2)c2cc(Nc3ccc(C)cc3F)cnc12` [Example 339, N-(2-fluoro-4-methylphenyl)-1-((3-fluorophenyl)sulfonyl)-3-((methylamino)methyl)-1H-pyrrolo[3,2-b]pyridin-6-amine hydrochloride] was 6.43; that for `CNCc1cn(S(=O)(=O)c2cccc(F)c2)c2cc(Nc3ccc(C)cc3OC(F)(F)F)cnc12` [Example 340, 1-((3-fluorophenyl)sulfonyl)-N-(4-methyl-2-(trifluoromethoxy)phenyl)-3-((methylamino)methyl)-1H-pyrrolo[3,2-b]pyridin-6-amine hydrochloride] was 6.24. Molecule `CNCc1cn(S(=O)(=O)c2cccc(F)c2)c2cc(Nc3ccc(Cl)cc3C)cnc12` [Example 341, N-(4-chloro-2-methylphenyl)-1-((3-fluorophenyl)sulfonyl)-3-((methylamino)methyl)-1H-pyrrolo[3,2-b]pyridin-6-amine hydrochloride] had a negative logarithm of the IC50 (pIC50) of 6.42. In turn, `CNCc1cn(S(=O)(=O)c2cccc(F)c2)c2cc(Nc3ccc(OC(F)(F)F)cc3OC)cnc12` [Example 343, 1-((3-fluorophenyl)sulfonyl)-N-(2-methoxy-4-(trifluoromethoxy)phenyl)-3-((methylamino)methyl)-1H-pyrrolo[3,2-b]pyridin-6-amine hydrochloride] had a pIC50 of 5.72.

In turn, `CNCc1cn(S(=O)(=O)c2cccc(F)c2)c2cc(Nc3ccc(Cl)nc3C)cnc12` [Example 344, N-(6-chloro-2-methylpyridin-3-yl)-1-((3-fluorophenyl)sulfonyl)-3-((methylamino)methyl)-1H-pyrrolo[3,2-b]pyridin-6-amine hydrochloride] showed a pIC50 of 6.01. Against the preceding molecule, the pIC50 is 0.29 log units higher. The value for `CNCc1cn(S(=O)(=O)c2cccnc2)c2cc(Nc3ccc(C)cc3Cl)cnc12` [Example 345, N-(2-chloro-4-methylphenyl)-3-((methylamino)methyl)-1-(pyridin-3-ylsulfonyl)-1H-pyrrolo[3,2-b]pyridin-6-amine hydrochloride] was 6.92.

Regarding `CNCc1cn(S(=O)(=O)c2cccnc2)c2cc(Nc3ccc(F)cc3C)cnc12` [Example 346, N-(4-fluoro-2-methylphenyl)-3-((methylamino)methyl)-1-(pyridin-3-ylsulfonyl)-1H-pyrrolo[3,2-b]pyridin-6-amine hydrochloride], the pIC50 is 6.64. This pIC50 is 0.28 log units lower than that of the molecule before.

The molecule `CNCc1cn(S(=O)(=O)c2cccnc2)c2cc(Nc3ccc(F)cc3Cl)cnc12` [Example 347, N-(2-chloro-4-fluorophenyl)-3-((methylamino)methyl)-1-(pyridin-3-ylsulfonyl)-1H-pyrrolo[3,2-b]pyridin-6-amine hydrochloride] gave a pIC50 of 6.74.

The values are drawn from US9676714B2, “Sulfonylindole derivatives and method for preparing the same” (Daewoong Pharmaceutical Co., Ltd., priority 2013, dated 2017).
